From article PMC5392131 (Current topics in behavioral neurosciences, 2017)
Like-named read-outs stand apart in the source and are kept apart here.

Assays:
[1] = system: extracellular dopamine in nucleus accumbens; assay: In vivo microdialysis in nucleus accumbens, dialysate dopamine; settings: rat nucleus accumbens; i.v. 3 mg/kg (after 1.0 mg/kg at time zero)
[2] = Plasma pharmacokinetics of MDPV and metabolites after i.p. MDPV administration; settings: rat plasma
male Sprague–Dawley rats [3] = assay: Locomotor activity; format: in vivo, rat; settings: rats undergoing microdialysis; i.v. 3 mg/kg (after 1.0 mg/kg at time zero)
DAT [4] = assay: DAT uptake inhibition in rat brain synaptosomes; format: biochemical; settings: for DAT/SERT ratio: (DAT IC50)^−1/(SERT IC50)^−1, higher values indicate greater DAT selectivity
NET = NET uptake inhibition in rat brain synaptosomes; format: biochemical; settings: relative to cocaine
[5] = cited from earlier work
SERT = SERT uptake inhibition in rat brain synaptosomes; format: biochemical; settings: relative to cocaine
male Sprague–Dawley rats [6] = settings: cited from earlier work
CYP 2D6 = settings: read-out: CYP 2D6 inhibition IC50; in vitro; cited from earlier work
[7] = system: extracellular dopamine in nucleus accumbens; settings: rats, cited from earlier work; for Elevation in extracellular dopamine: i.v. 0.3 mg/kg MDPV, 3.0 mg/kg methylone
[8] = system: extracellular 5-HT in nucleus accumbens; settings: rats; i.v. 3.0 mg/kg methylone; cited from earlier work
DAT [9] = settings: S-MDPV versus R-MDPV; cited from earlier work
[10] = i.p. MDPV 0.5 mg/kg, mean±SEM, N=6
[11] = i.p. MDPV 1.0 mg/kg, mean±SEM, N=6
[12] = i.p. MDPV 2.0 mg/kg, mean±SEM, N=6
[13] = i.p. MDPV 2.0 mg/kg, mean±SEM, N=6, listed as MPDV

In the case of `CCCC(C(=O)c1ccc(O)c(O)c1)N1CCCC1` (centres unmarked) [3,4-Catechol-PV, 3,4-dihydroxypyrovalerone], the “Effect on extracellular dopamine” value [1] is reported as “small, albeit significant, elevations”, the AUC [2, 10] is reported as 2,822±415 min μg/L and the Cmax [2, 10] is reported as 14 ± 2 ng/mL. For the same molecule, the Tmax [2, 10] was 2.67 ± 0.417 h, the AUC [2, 11] was 8,317±589 min μg/L and the Cmax [2, 11] was 36 ± 4 ng/mL. For the same molecule, the Tmax [2, 11] was 3.15 ± 0.983 h, the AUC [2, 12] was 12,762±1,625 min μg/L and the Cmax [2, 12] was 46 ± 9 ng/mL. The Tmax [2, 12] was 3.43 ± 0.417 h and the Effect on ambulation (male Sprague–Dawley rats [3]) was “no change in ambulation”.

In the case of `CCCC(C(=O)c1ccc(O)c(OC)c1)N1CCCC1` (centres unmarked) [4-OH-3-MeO-PV, 4-hydroxy-3-methoxypyrovalerone], the AUC [2, 10] is reported as 14,657±2,577 min μg/L, the Cmax [2, 10] is reported as 57 ± 7 ng/mL and the Tmax [2, 10] is reported as 2.8 ± 0.45 h. For the same molecule, the AUC [2, 11] was 28,168±3,373 min μg/L, the Cmax [2, 11] was 135 ± 23 ng/mL and the Tmax [2, 11] was 4.33 ± 0.4 h. The AUC [2, 12] was 51,925±7,946 min μg/L, the Cmax [2, 12] was 198 ± 31 ng/mL and the Tmax [2, 12] was 4 ± 0.9 h. The DAT/SERT ratio (DAT [4]) was >12.

`CC(N)Cc1ccccc1` (centres unmarked) [Amphetamine, reference compound] showed a DAT/SERT ratio (DAT [4]) of 36.75.

Work on `COC(=O)[C@H]1[C@@H](OC(=O)c2ccccc2)C[C@@H]2CC[C@H]1N2C` [Cocaine, reference compound] yielded a DAT/SERT ratio (DAT [4]) of 1.48.

For `CCCC(C(=O)c1ccc2c(c1)OCO2)N1CCCC1` (centres unmarked) [MDPV, 3,4-methylenedioxypyrovalerone], the “Potency as inhibitor at NET compared to cocaine” value (NET) is listed as “tenfold more potent”, the “Half-life (t1/2)” value ([5]; rat plasma, 2 mg/kg s.c. MDPV) is listed as “about 80 min” and the “Plasma Cmax” value ([5]; rat, 2 mg/kg s.c. MDPV) is listed as 271 ng/mL. For the same molecule, the “Time of maximal plasma concentration (Cmax) after injection” value ([5]; rat, s.c. MDPV (0.5, 1, 2 mg/kg)) was 15 to 20 min, the Cmax ([5]; read-out: Plasma Cmax (molar), rat, 2 mg/kg s.c. MDPV) was ~1000 nM and the “Potency as inhibitor at SERT compared to cocaine” value (SERT) was “tenfold less potent”. The “Potency as locomotor stimulant compared to cocaine” value (male Sprague–Dawley rats [6]) was “about tenfold more potent”, the AUC [2, 10] was 1,114 min μg/L and the Cmax [2, 10] was 20 ± 5 ng/mL. For the same molecule, the Tmax [2, 10] was 0.167 ± 0 h, the t1/2 [2, 10] was 1.53 ± 0.12 h and the AUC ([2]; i.p. MDPV 0.5 mg/kg, mean±SEM, N=6, listed as MPDV) was 1,114±330 min μg/L. The AUC [2, 11] was 2,858±859 min μg/L, the Cmax [2, 11] was 54 ± 18 ng/mL and the Tmax [2, 11] was 0.167 ± 0 h. The t1/2 [2, 11] was 1.32 ± 0.217 h, the AUC [2, 12] was 8,726 min μg/L and the Cmax [2, 12] was 135 ± 29 ng/mL. The Tmax [2, 12] was 0.167 ± 0 h, the AUC [2, 13] was 8,726±1,877 min μg/L and the t1/2 [2, 13] was 1.65 ± 0.233 h. The “Time at which Cmax is achieved” value ([2]; i.p. MDPV (0.5, 1, 2 mg/kg)) was ≤ 10 min, the Cmax ([2]; read-out: Cmax (molar), i.p. MDPV 2 mg/kg) was ~500 nM and the DAT/SERT ratio (DAT [4]) was 816.82. The “Potency as inhibitor at DAT compared to cocaine” value (DAT [4]; rat brain synaptosomes, relative to cocaine) was 50 fold, the IC50 (CYP 2D6) was 1.3 µM and the “Elevation in extracellular dopamine” value [7] was “threefold”. For the same molecule, the “Potency to increase dialysate dopamine compared to cocaine” value ([7]; i.v. administration) was “tenfold more potent”.

Molecule `CNC(C)C(=O)c1ccc(C)cc1` (centres unmarked) [Mephedrone, 4-methyl-N-methylcathinone, reference compound] has a DAT/SERT ratio (DAT [4]) of 0.55.

For `CNC(C)C(=O)c1ccc2c(c1)OCO2` (centres unmarked) [Methylone, 3,4-methylenedioxy-N-methylcathinone, reference compound], the DAT/SERT ratio (DAT [4]) is given as 0.77, the “Elevation in extracellular 5-HT” value [8] is given as “tenfold” and the “Elevation in extracellular dopamine” value [7] is given as “threefold”.

In the case of `CCC[C@@H](C(=O)c1ccc2c(c1)OCO2)N1CCCC1` [S-MDPV], the “Potency at inhibiting DAT compared to R-MDPV” value (DAT [9]) is listed as 100 times.

With `CCC(C(=O)c1ccccc1)N1CCCC1` (stereo not drawn) [α-PBP, α-pyrrolidinobutiophenone] the DAT/SERT ratio (DAT [4]) was >159.

For `CC(C(=O)c1ccccc1)N1CCCC1` (stereo not drawn) [α-PPP, α-pyrrolidinopropiophenone], the DAT/SERT ratio (DAT [4]) was >50.

In the case of `CCCC(C(=O)c1ccccc1)N1CCCC1` (stereo not drawn) [α-PVP, α-pyrrolidinovalerophenone], the DAT/SERT ratio (DAT [4]) is reported as >833.
